We go through 1 compound from patent US5707855A (priority 1996, dated 1998).

The subject of assay [1] is P. AERUGINOSA H309. The format is cell-based. To be noted: 10 μM NPN; fluorescence increase. The text has this:
(§1) The second assay determined membrane permeability by the ability of 1-N-phenylnaphthylamine (NPN), a small fluorescent probe, to insert itself into the membrane. Normally, very little NPN can penetrate the outer membrane, but in the presence of a membrane permeabilizer it can insert into the hydrophobic membrane resulting in an increase in fluorescence (FIGS. 7 and 8). This N-phenylnaphthylamine uptake assay was previously described by Loh, et al., Antimicrobial Agents and Chemo., 26:546, 1984. Cells were prepared exactly the same as for the lysozyme lysis assay. 1-N-phenylnaphthylamine (NPN) was dissolved in acetone at a concentration of 500 μM. NPN fluorescence was measured in a Perkin-Elmer 650-10S fluorescent spectrophotometer using excitation and emission wavelengths set to 350 nm and 420 nm respectively, with slit widths of 5 nm. The assay was standardized by adding 20 μl of NPN (final concentration of 10 μM) and 10 μl of 0.64 mg/ml of polymyxin B (final concentration of 6.4 μg/ml) into 1 ml of cells, and adjusting the resulting fluorescence to read 90% deflection (90 arbitrary units). Various compounds were tested by adding 10 μl of different concentrations to a cuvette containing 1 ml of cells and 10 μM NPN. Permeabilizing activity was designated as the total fluorescence minus the fluorescence due to NPN alone. Following the fluorescence measurement, the OD600 of the cells was taken to ensure no significant cell lysis had occurred.

Assay [2] has as its system E. cloacae 218R1. The format is cell-based. The settings on record: 10 μM NPN; fluorescence increase.
Description: as §1

The subject of assay [3] is E. coli. In kind it is cell-based. The settings on record: strain UB1005, Parent of DC2. How it is done:
(§2) The minimum inhibitory concentrations of (MIC) of CEME, CEMA and melittin were determined for a number of different bacteria (Table 2). Briefly, cells were grown overnight at 37° C. in LB-S (Luria broth without any salt supplement) and diluted one in 10,000 in the same medium to give concentrations of about 10^4 to 10^5 CFU/ml. The broth dilutions were set up in a 96 well microtiter plate by putting 200 μl of LB-S containing the initial concentration of antibiotic or compound in column 1 and 100 μl of the same medium in columns 2-12. The compounds were diluted by taking 100 μl of broth from column 1 and mixing it with column 2, resulting in a one in two dilution. This was continued to column 10. Finally, 10 μl of bacteria were pipetted into columns 1-11, and the plates incubated overnight at 37° C. The next day the plates were scored for growth in the wells, and the MIC determined.

For assay [4], the system named is S. typhimurium. In kind it is cell-based. To be noted: C590 versus C587. How it is done: as §2
Assay [5] deals with E. cloacae. In kind it is cell-based. The settings on record: strain 218S, Parent of 218R1. The protocol: as §2
Assay [6] deals with P. aeruginosa. The format is cell-based. The settings on record: against many bacterial species. How it is done: as §2
A short description of assay [7]: MICs of common antibiotics in the presence of sub-MIC levels of cationic peptides. The format is cell-based. The settings on record: peptide at 1/2 MIC levels. The protocol: as §2
The ability of the cationic peptides to work synergystically was examined by determining the MIC values for some commonly used antibiotics in the presence of sub-MIC levels of cationic peptides (Table 4). […] This may be due to the high membrane permeabilizing activity of CEMA (see below). However, the peptides did lower the MIC of polymyxin B, possibly due to the fact that they are all taken up by the same pathway and are therefore aiding each other's uptake. Of interest is the influence that melittin has on the MIC of polymyxin B, given the […] membrane permeabilizing activity of melittin.

For assay [8], the system named is P. AERUGINOSA H309. The assay can be described thus: Lysozyme lysis assay (outer membrane permeabilization). In kind it is cell-based. The settings on record: 50 μg/ml lysozyme; decrease in OD600. How it is done: (§3) Membrane permeabilization by polycationic compounds was measured in two different assays. The first assay measured membrane disruption by the ability of lysozyme to reach the periplasm and cause cell lysis. […] The uptake of lysozyme into whole cells due to membrane permeabilization by various compounds was previously described in Hancock, et al., Antimicrobial Agents and Chemo., 19:777, 1981. Overnight cultures of P. aeruginosa H309 or E. cloacae 218R1 grown in LB-S were diluted 1 in 50 in fresh medium and grown to an OD600 =0.5-0.6. The cells were harvested in a Silencer H-103N clinical centrifuge at 1800 g for 10 min, washed once with one volume of assay buffer (5 mM HEPES pH 7.2, 5 mM KCN), and resuspended in the same buffer to an OD600 of 0.5. Assays consisted of 600 μl of cells with 50 μg/ml of chicken egg white lysozyme and varying concentrations of cationic compounds. Cell lysis was measured as a decrease in the OD600 in a Perkin-Elmer dual beam spectrophotometer. Parallel experiments performed without lysozyme enabled the measurement of the lytic activity of the compounds themselves. To test whether or not permeability to lysozyme could be inhibited by divalent cations, various concentrations of MgCl2 were added to the assay after the addition of lysozyme and before the addition of the test compound.

For assay [9], the system named is E. cloacae 218R1. The assay is described as above. In kind it is cell-based. The settings on record: 50 μg/ml lysozyme; decrease in OD600. The protocol:
as §3

For assay [10], the system named is P. aeruginosa H103 LPS. Put plainly: Dansyl polymyxin (DPx) displacement from purified LPS. In kind it is binding. To be noted: on a μM basis. How it is done: In this assay, DPx was incubated with LPS to saturate the binding sites and then, while polycationic compounds are titrated into the reaction, displacement of the DPx was monitored by the decrease in fluorescence (FIG. 9).
The method of Moore, et al., (Antimicrobial Agents and Chemo., 29:496, 1987), was used to test how much DPx was needed to saturate the binding sties on LPS. Briefly, 5 μl samples of 100 μM DPx were titrated sequentially into 1 ml of 3 μg/ml of LPS until a maximum fluorescence was reached. The fluorescence was measured in a Perkin-Elmer 650-10S fluorescence spectrophotometer with an excitation wavelength of 340 nm and an emission wavelength of 485 nm using slit widths of 5 nm. […] For the binding inhibition assays (Moore, et al., Antimicrobial Agents and Chemo., 29:496, 1987), 2.5 μM DPx was added to 3 μg/ml of H103 LPS in 5 mM HEPES pH 7.2. The test compounds were added 5 μl at a time and the decrease in fluorescence due to displacement of the DPx from the LPS was recorded.

Values after ≈ are worked out from the molar mass of the structure shown.

What is called MIC is the least concentration at which growth counts as inhibited. For the compound `CC[C@H](C)[C@H](NC(=O)CNC(=O)[C@@H](NC(=O)[C@H](CCCCN)NC(=O)[C@H](CCCCN)NC(=O)[C@H](Cc1ccccc1)NC(=O)[C@H](CC(C)C)NC(=O)[C@H](CCCCN)NC(=O)[C@H](Cc1c[nH]c2ccccc12)NC(=O)[C@@H](N)CCCCN)[C@@H](C)CC)C(=O)NCC(=O)N[C@@H](C)C(=O)N[C@H](C(=O)N[C@@H](CC(C)C)C(=O)N[C@@H](CCCCN)C(=O)N[C@H](C(=O)N[C@@H](CC(C)C)C(=O)N[C@H](C(=O)N[C@H](C(=O)NCC(=O)N[C@@H](CC(C)C)C(=O)N1CCC[C@H]1C(=O)N[C@@H](C)C(=O)N[C@@H](CC(C)C)C(=O)N[C@@H](CCCCN)C(=O)N[C@@H](CC(C)C)C(=O)N[C@H](C(=O)N[C@@H](CCCCN)C(=O)O)[C@@H](C)O)[C@@H](C)O)[C@@H](C)O)C(C)C)C(C)C` [CEMA], the “Activity in opening up the membrane to NPN” value in assay [1] and in assay [2] was “equally active” each time. For the same compound, the MIC in [3] and in [5] was 2.8 µg/mL (≈ 0.913 µM) each time. Further, in assay [4], the “Sensitivity of defensin sensitive strain C590 relative to parent (MIC change)” value was “four-fold more sensitive”. In [6], the “Antibiotic activity compared with CEME” value is given as “two-fold improved antibiotic activity”. Also, the “Reduction of the MICs of ceftazidime, imipenem and tetracycline” value in [7] is listed as 2 fold. Besides, the “Permeabilization of the outer membrane to lysozyme, compared with polymyxin B” value in [8] and in [9] was “stronger permeabilizer for lysozyme than polymyxin B” each time. In addition, in assay [10], the “Affinity for LPS compared with polymyxin B” value is listed as “higher affinity for LPS than polymyxin B”.
